14 molecules from US20200399318A1, “PEPTIDE INHIBITORS OF PHOSPHOGLYCERATE MUTASE AND METHODS OF USE” (priority 2016, published 2020) can be followed below.

In test [1] the target is O. volvulus iPGM (Onchocerca volvulus, UniProt I6LDA6). Kind of test: biochemical.
Test [2] concerns the target B. malayi iPGM (Brugia malayi, UniProt Q4VWF8). Kind of test: biochemical.
In test [3] the target is E. coli iPGM (Escherichia coli, UniProt P37689). Kind of test: biochemical.
Test [4] deals with D. immitis iPGM. The test is classed as biochemical, Dirofilaria immitis.
[5] abbreviates: read-out: O. volvulus iPGM Max Inhibition.
Where [6] appears, read: read-out: B. malayi iPGM Max Inhibition.
The mark [7] stands for this setting: read-out: E. coli iPGM Max Inhibition.

Where a SMILES comes first, the peptide text is derived from it. Bridges are numbered along the chain shown (N, C = ends). [ ]: non-standard residue; d: D form.

E. coli iPGM, sequence (P37689 whole entry, looked up): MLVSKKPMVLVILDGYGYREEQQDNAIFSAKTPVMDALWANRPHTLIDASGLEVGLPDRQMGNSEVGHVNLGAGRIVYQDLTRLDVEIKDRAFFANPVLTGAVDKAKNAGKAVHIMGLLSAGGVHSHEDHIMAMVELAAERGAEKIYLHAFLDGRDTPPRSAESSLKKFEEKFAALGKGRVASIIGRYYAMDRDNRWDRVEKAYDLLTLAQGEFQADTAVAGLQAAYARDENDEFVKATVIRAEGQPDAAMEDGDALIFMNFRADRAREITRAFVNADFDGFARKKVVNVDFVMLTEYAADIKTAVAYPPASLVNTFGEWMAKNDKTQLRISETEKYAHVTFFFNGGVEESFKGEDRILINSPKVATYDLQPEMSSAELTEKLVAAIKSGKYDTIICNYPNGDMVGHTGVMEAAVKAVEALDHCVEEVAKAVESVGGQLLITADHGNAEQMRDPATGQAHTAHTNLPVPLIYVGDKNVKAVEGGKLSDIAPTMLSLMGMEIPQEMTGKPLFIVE
B. malayi iPGM, sequence (Q4VWF8 whole entry, looked up): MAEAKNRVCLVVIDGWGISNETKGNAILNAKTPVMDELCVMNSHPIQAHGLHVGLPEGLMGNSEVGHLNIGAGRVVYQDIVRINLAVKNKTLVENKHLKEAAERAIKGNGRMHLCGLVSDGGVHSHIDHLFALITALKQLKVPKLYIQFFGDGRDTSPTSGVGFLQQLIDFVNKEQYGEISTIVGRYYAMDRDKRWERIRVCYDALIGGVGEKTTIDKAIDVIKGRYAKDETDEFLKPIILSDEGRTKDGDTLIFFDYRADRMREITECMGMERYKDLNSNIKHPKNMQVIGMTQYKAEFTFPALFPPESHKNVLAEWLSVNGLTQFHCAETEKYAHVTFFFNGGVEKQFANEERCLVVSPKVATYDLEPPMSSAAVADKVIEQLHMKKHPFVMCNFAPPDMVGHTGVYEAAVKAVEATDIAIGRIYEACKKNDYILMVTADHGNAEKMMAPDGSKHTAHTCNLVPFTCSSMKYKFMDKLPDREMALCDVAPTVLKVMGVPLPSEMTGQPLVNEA
O. volvulus iPGM, sequence (I6LDA6 whole entry, looked up): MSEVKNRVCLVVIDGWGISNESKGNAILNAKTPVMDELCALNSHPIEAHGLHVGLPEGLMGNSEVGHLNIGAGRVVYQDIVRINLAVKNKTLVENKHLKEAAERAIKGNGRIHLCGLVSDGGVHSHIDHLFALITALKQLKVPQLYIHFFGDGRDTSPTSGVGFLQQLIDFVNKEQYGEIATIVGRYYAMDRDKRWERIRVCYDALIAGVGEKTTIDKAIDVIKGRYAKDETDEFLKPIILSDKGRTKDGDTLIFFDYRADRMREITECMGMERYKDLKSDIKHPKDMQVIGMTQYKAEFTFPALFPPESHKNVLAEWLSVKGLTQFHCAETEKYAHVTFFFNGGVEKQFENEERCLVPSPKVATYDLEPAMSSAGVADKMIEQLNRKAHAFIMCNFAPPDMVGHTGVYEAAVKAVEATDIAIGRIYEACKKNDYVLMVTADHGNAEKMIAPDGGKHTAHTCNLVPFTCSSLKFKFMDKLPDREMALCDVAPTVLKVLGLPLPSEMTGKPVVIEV

In the case of `CC(C)C[C@H](NC(=O)[C@H](Cc1ccc(O)cc1)NC(=O)[C@@H]1CSCC(=O)N[C@H](Cc2ccc(O)cc2)C(=O)N[C@@H](CC(=O)O)C(=O)N[C@@H](Cc2ccc(O)cc2)C(=O)N2CCC[C@H]2C(=O)NCC(=O)N[C@@H](CC(=O)O)C(=O)N[C@@H](Cc2c[nH]cn2)C(=O)N1)C(=O)N[C@@H](Cc1ccc(O)cc1)C(=O)NCC(=O)N[C@H](C(=O)N[C@@H](CS)C(=O)NCC(N)=O)[C@@H](C)O` [Ce-1], the Emax in test [1] (setting [5]) is 95.4 ± 2.6%; in test [2] (setting [6]) it was 94 ± 3.4%; in test [3] (setting [7]), 96.5 ± 4.2%.
As to `CC(C)C[C@H](NC(=O)[C@H](Cc1ccc(O)cc1)NC(=O)[C@@H]1CSCC(=O)N[C@H](Cc2ccc(O)cc2)C(=O)N[C@@H](CC(=O)O)C(=O)N[C@@H](Cc2ccc(O)cc2)C(=O)N2CCC[C@H]2C(=O)NCC(=O)N[C@@H](CC(=O)O)C(=O)N[C@@H](Cc2ccc(O)cc2)C(=O)N1)C(N)=O` [Ce-2e] ({CH2CO}-[dY]DYPGDYCYL-NH2; thioether N-8), the Emax in test [1] (setting [5]) was found to be 55.5 ± 1.4%; in test [2] (setting [6]) it was 82.7 ± 6.1%; in test [3] (setting [7]) it was 94.5 ± 9%.
As to `CC(C)[C@@H]1NC(=O)[C@H](C)NC(=O)[C@@H](Cc2ccc(O)cc2)NC(=O)CSC[C@@H](C(=O)N[C@@H](CCCNC(=N)N)C(=O)N[C@H](C(=O)N[C@@H](CS)C(=O)NCC(N)=O)[C@@H](C)O)NC(=O)[C@H](CC(N)=O)NC(=O)[C@@H]2CCCN2C(=O)[C@H](Cc2c[nH]c3ccccc23)NC1=O` [Bm-7] ({CH2CO}-[dY]AVWPNCRTCG-NH2; thioether N-7), the “O. volvulus iPGM PIC50, M” value in test [1] was 5.37 ± 0.52 M. For the same molecule, the Emax in test [1] (setting [5]) amounted to 78 ± 19.9%; in test [2] (setting [6]), 74 ± 10.1%; in test [3] (setting [7]) it was 69.7 ± 12.3%. In addition, the “pIC50 B. malayi iPGM” value in test [2] was determined as 5.28. The “E. coli iPGM PIC50, M” value in test [3] came out at 5.12 ± 0.09 M. Also, in test [4], the “D. immitis iPGM Max Inhibition” value is reported as −83.1 ± 9.7.
Take `CC(C)C[C@H](NC(=O)[C@H](Cc1ccc(O)cc1)NC(=O)[C@@H]1CSCC(=O)N[C@H](Cc2ccc(O)cc2)C(=O)N[C@@H](CC(=O)O)C(=O)N[C@@H](Cc2ccc(O)cc2)C(=O)N2CCC[C@H]2C(=O)NCC(=O)N[C@@H](CC(=O)O)C(=O)N[C@@H](Cc2ccc(O)cc2)C(=O)N1)C(=O)N[C@@H](Cc1ccc(O)cc1)C(=O)NCC(N)=O` [Ce-2c]: the Emax in test [1] (setting [5]) is 78.4%; in test [2] (setting [6]) it was 88.2%; in test [3] (setting [7]) it was 89.1%.
On to `CC(C)C[C@@H]1NC(=O)[C@@H](Cc2ccc(O)cc2)NC(=O)CSC[C@@H](C(=O)N[C@@H](CO)C(=O)N[C@H](C(=O)N[C@@H](CS)C(=O)NCC(N)=O)[C@@H](C)O)NC(=O)[C@H](CC(N)=O)NC(=O)[C@@H]2CCCN2C(=O)[C@H](Cc2c[nH]c3ccccc23)NC(=O)[C@H](CC(=O)O)NC1=O` [Bm-5] ({CH2CO}-[dY]LDWPNCSTCG-NH2; thioether N-7), for which the “O. volvulus iPGM PIC50, M” value in test [1] is 5.99 ± 0.69 M. Further, the figures for the Emax in test [1] (setting [5]), in test [2] (setting [6]) and in test [3] (setting [7]) were 83.1 ± 7.3%, 84.7 ± 1.2% and 74.3 ± 9.5%, respectively. The “pIC50 B. malayi iPGM” value in test [2] is recorded as 6.16. Further, in test [3], the “E. coli iPGM PIC50, M” value was 5.54 ± 0.20 M. The “D. immitis iPGM Max Inhibition” value in test [4] is given as −87.1 ± 3.2.
As for `CC(C)C[C@H](NC(=O)[C@H](Cc1ccc(O)cc1)NC(=O)[C@@H]1CSCC(=O)N[C@H](Cc2ccc(O)cc2)C(=O)N[C@@H](CC(=O)O)C(=O)N[C@@H](Cc2ccc(O)cc2)C(=O)N2CCC[C@H]2C(=O)NCC(=O)N[C@@H](CC(=O)O)C(=O)N[C@@H](Cc2ccc(O)cc2)C(=O)N1)C(=O)N[C@@H](Cc1ccc(O)cc1)C(=O)NCC(=O)N[C@H](C(N)=O)[C@@H](C)O` [Ce-2b], the figures for the Emax in test [1] (setting [5]), in test [2] (setting [6]) and in test [3] (setting [7]) were 80.1 ± 2.1%, 91.8 ± 5.4% and 95.3 ± 9%, respectively.
Regarding `CC(C)C[C@@H]1NC(=O)[C@@H](Cc2ccc(O)cc2)NC(=O)CSC[C@@H](C(=O)N[C@@H](CC(N)=O)C(=O)N[C@H](C(=O)N[C@@H](CS)C(N)=O)[C@@H](C)O)NC(=O)[C@H](CC(N)=O)NC(=O)[C@@H]2CCCN2C(=O)[C@H](Cc2c[nH]c3ccccc23)NC(=O)[C@H](CCC(=O)O)NC1=O` [Bm-4a] ({CH2CO}-[dY]LEWPNCNTC-NH2; thioether N-7), the “O. volvulus iPGM PIC50, M” value in test [1] is on record as 6.14 ± 0.62 M. The Emax in test [1] (setting [5]) was 87.8 ± 4.1%; in test [2] (setting [6]) it was 88 ± 0.4%; in test [3] (setting [7]), 78.3 ± 3.4%. In test [2], the “B. malayi iPGM PIC50, M” value was determined as 6.31 ± 0.29 M. Moreover, the “E. coli iPGM PIC50, M” value in test [3] is 5.58 ± 0.19 M. The “D. immitis iPGM Max Inhibition” value in test [4] was −90.5 ± 1.5.
Turning to `CC(=O)N[C@H](Cc1ccc(O)cc1)C(=O)N[C@@H](CC(=O)O)C(=O)N[C@@H](Cc1ccc(O)cc1)C(=O)N1CCC[C@H]1C(=O)NCC(=O)N[C@@H](CC(=O)O)C(=O)N[C@@H](Cc1ccc(O)cc1)C(=O)N[C@@H](CO)C(=O)N[C@@H](Cc1ccc(O)cc1)C(=O)N[C@@H](CC(C)C)C(=O)N[C@@H](Cc1ccc(O)cc1)C(=O)NCC(=O)N[C@H](C(=O)N[C@@H](CS)C(=O)NCC(N)=O)[C@@H](C)O` [Ce-L2] (Ac-[dY]DYPGDYSYLYGTCG-NH2), the Emax in test [1] (setting [5]) was found to be 40.2 ± 27.6%; in test [2] (setting [6]), 48.2 ± 18.2%; in test [3] (setting [7]), 95.1 ± 5.2%. For the same molecule, in test [2], the “B. malayi iPGM PIC50, M” value amounted to 4.89 ± 0.21 M. Besides, in test [3], the “pIC50 E. coli iPGM” value was determined as 5.88. The “D. immitis iPGM Max Inhibition” value in test [4] is −44 ± 22.6.
As for `CC(C)C[C@H](NC(=O)[C@H](Cc1ccc(O)cc1)NC(=O)[C@@H]1CSCC(=O)N[C@H](Cc2ccc(O)cc2)C(=O)N[C@@H](CC(=O)O)C(=O)N[C@@H](Cc2ccc(O)cc2)C(=O)N2CCC[C@H]2C(=O)NCC(=O)N[C@@H](CC(=O)O)C(=O)N[C@@H](Cc2ccc(O)cc2)C(=O)N1)C(=O)N[C@@H](Cc1ccc(O)cc1)C(=O)NCC(=O)N[C@H](C(=O)N[C@@H](CO)C(=O)NCC(N)=O)[C@@H](C)O` [Ce-2S], the Emax in test [1] (setting [5]) came out at 97 ± 1.6%; in test [2] (setting [6]) it was 97.7 ± 0.6%; in test [3] (setting [7]), 105 ± 2.5%. Further, the inhibition at 0.0005 µM in test [1] (setting [5]) was 69.8 ± 9.3%; in test [2] (setting [6]), 77.1 ± 7.5%; in test [3] (setting [7]) it was 68.1 ± 8.9%.
In the case of `CC[C@H](C)[C@@H]1NC(=O)[C@H](CCCNC(=N)N)NC(=O)[C@H](Cc2ccccc2)NC(=O)[C@@H]2CCCN2C(=O)[C@H](CC(N)=O)NC(=O)[C@H](C)NC(=O)[C@H](CC(C)C)NC(=O)[C@H]([C@@H](C)O)NC(=O)[C@H]([C@@H](C)O)NC(=O)[C@H](Cc2ccc(O)cc2)NC(=O)CSC[C@@H](C(=O)NCC(N)=O)NC(=O)[C@H](Cc2c[nH]cn2)NC(=O)[C@H](CC(C)C)NC1=O` [Ce-4] ({CH2CO}-YTTLANPFRILHCG-NH2; thioether N-13), the “O. volvulus iPGM PIC50, M” value in test [1] stood at 5.37 ± 0.14 M. The Emax came out at 23 ± 35.7% in test [1] (setting [5]), 2.9 ± 3.3% in test [2] (setting [6]) and 44.3 ± 1.9% in test [3] (setting [7]). Moreover, the “D. immitis iPGM Max Inhibition” value in test [4] is on record as −22.1 ± 35.5.
Regarding `CC[C@H](C)[C@@H]1NC(=O)[C@H](CCC(=O)O)NC(=O)[C@@H]2CCCN2C(=O)[C@H](C)NC(=O)[C@H](CC(N)=O)NC(=O)[C@@H]2CCCN2C(=O)[C@H](Cc2c[nH]c3ccccc23)NC(=O)[C@H](CO)NC(=O)[C@@H](Cc2ccc(O)cc2)NC(=O)CSC[C@@H](C(=O)N[C@@H](CS)C(=O)NCC(N)=O)NC(=O)[C@H](CCCCN)NC(=O)[C@H](Cc2c[nH]c3ccccc23)NC1=O` [Bm-1] ({CH2CO}-[dY]SWPNAPEIWKCCG-NH2; thioether N-12), in test [1], the “O. volvulus iPGM PIC50, M” value is reported as 5.88 ± 0.53 M. In addition, the Emax was 82.1 ± 5.4% in test [1] (setting [5]), 82.8 ± 0.9% in test [2] (setting [6]) and 60.6 ± 9% in test [3] (setting [7]). In addition, the “pIC50 B. malayi iPGM” value in test [2] was 5.89. In addition, in test [3], the “pIC50 E. coli iPGM” value was 5.31. For the same molecule, in test [4], the “D. immitis iPGM Max Inhibition” value was −85.9 ± 0.2.
As for `NC(=O)[C@H](Cc1ccc(O)cc1)NC(=O)[C@@H]1CSCC(=O)N[C@H](Cc2ccc(O)cc2)C(=O)N[C@@H](CC(=O)O)C(=O)N[C@@H](Cc2ccc(O)cc2)C(=O)N2CCC[C@H]2C(=O)NCC(=O)N[C@@H](CC(=O)O)C(=O)N[C@@H](Cc2ccc(O)cc2)C(=O)N1` [Ce-2f] ({CH2CO}-[dY]DYPGDYCY-NH2; thioether N-8), the Emax was -4.3% in test [1] (setting [5]), 14.8% in test [2] (setting [6]) and 79.6% in test [3] (setting [7]).
For the molecule `CC(C)C[C@@H]1NC(=O)[C@@H](Cc2ccc(O)cc2)NC(=O)CSC[C@@H](C(=O)N[C@@H](CC(N)=O)C(=O)N[C@H](C(=O)N[C@@H](CS)C(=O)NCC(N)=O)[C@@H](C)O)NC(=O)[C@H](CC(N)=O)NC(=O)[C@@H]2CCCN2C(=O)[C@H](Cc2c[nH]c3ccccc23)NC(=O)[C@H](CCC(=O)O)NC1=O` [Bm-4] ({CH2CO}-[dY]LEWPNCNTCG-NH2; thioether N-7), the “pIC50 O. volvulus iPGM” value in test [1] is on record as 6.10. The Emax in test [1] (setting [5]) is 85.7 ± 6.5%; in test [2] (setting [6]), 86.3 ± 1.4%; in test [3] (setting [7]), 76.3 ± 8.3%. In addition, the “pIC50 B. malayi iPGM” value in test [2] came out at 6.24. The “E. coli iPGM PIC50, M” value in test [3] is 5.56 ± 0.16 M. For the same molecule, the “D. immitis iPGM Max Inhibition” value in test [4] was −88.1 ± 0.8.
With `CC[C@H](C)[C@@H]1NC(=O)[C@H](CCCNC(=N)N)NC(=O)[C@H](Cc2ccccc2)NC(=O)[C@@H]2CCCN2C(=O)[C@H](CC(N)=O)NC(=O)[C@H](C)NC(=O)[C@H](CC(C)C)NC(=O)[C@H]([C@@H](C)O)NC(=O)[C@H]([C@@H](C)CC)NC(=O)[C@H](Cc2ccc(O)cc2)NC(=O)CSC[C@@H](C(=O)NCC(N)=O)NC(=O)[C@H](Cc2c[nH]cn2)NC(=O)[C@H](CC(C)C)NC1=O` [Ce-3] ({CH2CO}-YITLANPFRILHCG-NH2; thioether N-13), the “O. volvulus iPGM PIC50, M” value in test [1] is 5.26 ± 0.18 M. Further, the Emax in test [1] (setting [5]) was found to be 22.9 ± 30.8%; in test [2] (setting [6]), 13.3 ± 2%; in test [3] (setting [7]) it was 91.4 ± 1.3%. Also, in test [3], the “E. coli iPGM PIC50, M” value came out at 6.27 ± 0.10 M. Besides, the “D. immitis iPGM Max Inhibition” value in test [4] is given as −30.1 ± 32.2.
